Test results from patent US7329677B2, “Imidazo(4,5-b)pyridine-derivatives as inducible no-synthase inhibitors” (Altana Pharma AG, priority 2003, dated 2008).
Counter-ions that a name gives are not always drawn.

Tests used:
[1] = biological target: T1, human inducible NO-synthase (Homo sapiens, UniProt P35228); test: Measurement of inducible NO-synthase activity ([3H]arginine conversion); assay type: biochemical; conditions: crude cytosolic fraction containing human inducible NO-synthase; 0.1 μM arginine; 45 to 60 min at 37° C.; read-out: Inhibition of iNOS activity [measured as −logIC50 (mol/l)] (converted)
T1 construct: host or cells: crude cytosolic fraction
Method: The assay is performed in 96-well microtiter F-plates (Greiner, Frickenhausen, FRG) in a total volume of 100 μl in the presence of 100 nM calmodulin, 226 μM CaCl2, 477 μM MgCl2, 5 μM flavin-adenine-dinucleotide (FAD), 5 μM flavin mononucleotide (FMN), 0.1 mM NADPH, 7 mM glutathione, 10 μM BH4 and 100 mM HEPES pH 7.2. Arginine concentrations are 0.1 μM for enzyme inhibition experiments. 150000 dpm of [^3H]arginine are added to the assay mixture. Enzyme reaction is started by the addition of 4 μg of a crude cytosolic fraction containing human inducible NO-synthase and the reaction mixture is incubated for 45 to 60 min at 37° C. Enzyme reaction is stopped by adding 10 μl of 2M MESbuffer pH 5,0. […] of the incubation mixture are transferred into a MADP N65 filtration microtiter plate (Millipore, Eschborn, FRG) containing already 50 μl of AG-50W-X8 cation exchange resin (Biorad, München, FRG). […] Scintillation plates are counted in a szintillation counter.
For the measurement of inducible NO-synthaseinhibiting potencies of compounds increasing concentrations of inhibitors were included into the incubation mixture. IC50-values were calculated from the percent inhibition at given concentrations by nonlinear least square fitting.

SMILES	melting point	IC50 [1]
COc1ccnc(CC(C)c2nc3cccnc3[nH]2)c1 (racemic) (as salt: hydrochloride) [Example 1, (R,S)-2-[3-(4-Methoxypyridin-2-yl)prop-2-yl]-3H-imidazo[4,5-b]pyridine hydrochloride]	61 to 64 °C	
COc1ccnc(CC(C)c2nc3cccnc3[nH]2)c1 (racemic) [Example 1, (R,S)-2-[3-(4-Methoxypyridin-2-yl)prop-2-yl]-3H-imidazo[4,5-b]pyridine hydrochloride]		0.0708 µM
